Assay results taken from patent publication US12152016B2, “Aryl hydrocarbon receptor modulators and uses thereof” (Beth Israel Deaconess Medical Center, Inc., priority 2018, dated 2024).

Legend:
[1] = tested on: AHR-dependent transcription of the CYP1A1 gene; experiment: CYP1A1 induction in mouse macrophages; assay type: cell-based
Description: (§1) Mouse macrophages were also used to test AHR-dependent transcription of the CYP1A1 gene in vivo. Finally, the activity of exemplary compounds of Formula (I) described herein was tested in the human […] cell line U937. The U937 cell line is derived from a patient with diffuse histiocytic lymphoma. Tables 2-4 summarize structure-activity relationship data collected for exemplary, non-limiting compounds of Formula (I) described herein.

[2] = biological target: T1, aryl hydrocarbon receptor (AHR) (Homo sapiens, UniProt P35869); experiment: XRE-driven luciferase reporter assay, human HepG2; settings: for XRE luciferase Emax (fold): fold over vehicle; for XRE luciferase Emax (footnote c): Emax defined as fold increase at highest concentration tested (10 μM); for fold less active / fold decrease in activity: AHR activity relative to compound #10
T1 sequence (P35869 11-848): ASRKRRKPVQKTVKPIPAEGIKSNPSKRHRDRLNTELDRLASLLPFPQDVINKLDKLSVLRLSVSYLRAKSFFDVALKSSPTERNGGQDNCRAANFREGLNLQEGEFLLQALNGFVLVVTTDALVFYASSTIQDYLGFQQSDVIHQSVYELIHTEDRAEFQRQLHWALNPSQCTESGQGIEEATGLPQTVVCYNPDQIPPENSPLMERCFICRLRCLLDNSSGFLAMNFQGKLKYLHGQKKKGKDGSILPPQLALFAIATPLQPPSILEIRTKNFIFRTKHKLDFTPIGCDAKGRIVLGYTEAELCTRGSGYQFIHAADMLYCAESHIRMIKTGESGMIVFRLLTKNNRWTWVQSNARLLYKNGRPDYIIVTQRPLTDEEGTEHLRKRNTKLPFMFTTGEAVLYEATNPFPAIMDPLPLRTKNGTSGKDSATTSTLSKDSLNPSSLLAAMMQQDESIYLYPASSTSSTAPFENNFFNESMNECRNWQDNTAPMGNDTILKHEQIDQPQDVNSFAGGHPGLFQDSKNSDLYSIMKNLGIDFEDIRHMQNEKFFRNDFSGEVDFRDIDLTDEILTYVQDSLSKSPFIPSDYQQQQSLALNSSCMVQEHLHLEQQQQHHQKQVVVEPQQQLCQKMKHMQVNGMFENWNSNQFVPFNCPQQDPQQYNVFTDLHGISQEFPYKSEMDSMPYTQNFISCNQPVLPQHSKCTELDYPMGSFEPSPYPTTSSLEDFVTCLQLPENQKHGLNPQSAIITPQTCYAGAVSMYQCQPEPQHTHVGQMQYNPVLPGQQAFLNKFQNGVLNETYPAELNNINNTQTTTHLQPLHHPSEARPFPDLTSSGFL
Description: The Human HepG2 cell line is a human liver cancer cell line, and provide a relevant in vitro AHR activity model. These Hep2G cells have been modified to stably express an AHR-responsive (XRE) firefly luciferase reporter gene to give Hep2G-XRE cells. The expression of luciferase should primarily reflect AHR-dependent transcription controlled by XRE.
Transfected cells were treated with AhR agonist (10^−5-10^−12) for 4.5 h in full medium. Cells were lysed and luciferase was activated using the Luciferase Assay System (Promega). Luminescence signals were measured with a FluroStar Omega microplate reader. Luminescence signals of compound treated groups were normalized to vehicle (DMSO) treated control and plotted as concentration dependent fold changes.

[3] = tested on: AHR-dependent transcription of the CYP1A1 gene; experiment: CYP1A1 induction in human U937 cells; assay type: cell-based; settings: Human U937, 1 μM
Description: as §1

[4] = XRE luciferase EC50, Human HepG2, least square curve fitting, >10,000 = does not reach 50% of Emax of ITE at 10 μM (highest concentration tested)
[5] = XRE luciferase EC50 (footnote a), Human HepG2, EC50 defined as concentration induced 50% of Emax of ITE

Compound | CYP1A1 induction (% of ITE ± SEM) ([1]; 5 nM) | CYP1A1 induction (% of ITE ± SEM) ([1]; 50 nM) | CYP1A1 induction (% of ITE ± SEM) ([1]; 5 μM) | XRE luciferase Emax (fold) ([2]; Human HepG2) | EC50 [2, 4] [nM] | CYP1A1 induction (% of ITE ± SEM) [3] | XRE luciferase Emax (footnote c) ([2]; Human HepG2) | EC50 [2, 5] [nM] | fold less active / fold decrease in activity [2] [fold]
COc1cccc(C(=O)c2c[nH]c3ccccc23)n1 [Compound 5] | 57 ± 22 % of ITE | 168 ± 86 % of ITE | 101 ± 33 % of ITE | 48 | 96 | 165 ± 27 % of ITE | – | – | –
COc1cccc(C(=O)c2c[nH]c3ccccc23)c1 [Compound 9] | – | 9 ± 5 % of ITE | – | – | > 10000 | 101 ± 12 % of ITE | (25)^c fold | – | –
COC(=O)c1cccc(C(=O)c2c[nH]c3ccc(OC)cc23)n1 [Compound 19] | – | 121 ± 12 % of ITE | 120 ± 13 % of ITE | 131 | 1800 | – | – | – | –
COC(=O)c1cccc(C(=O)c2c[nH]c3ccc(Br)cc23)n1 [Compound 20] | – | 138 ± 8 % of ITE | 144 ± 20 % of ITE | 55 | 6.2 | – | – | – | –
COC(=O)c1cccc(C(=O)c2c[nH]c3c4c(ccc23)CCC4)n1 [Compound 21] | – | 129 ± 8 % of ITE | 118 ± 5 % of ITE | 53 | 27 | – | – | – | –
COC(=O)c1cccc(C(=O)c2c[nH]c3c2ccc2ccccc23)n1 [Compound 22] | – | 57 ± 5 % of ITE | 105 ± 3 % of ITE | – | – | – | (121)^c fold | 14 | –
COC(=O)c1ccc(C(=O)c2c[nH]c3ccccc23)cn1 [Compound 23] | – | – | 65 ± 9 % of ITE | 74 | 4700 | – | – | – | –
COC(=O)c1ccc(C(=O)c2c[nH]c3ccccc23)s1 [Compound 24] | 60 ± 13 % of ITE | 99 ± 18 % of ITE | 59 ± 22 % of ITE | – | – | 244 ± 28 % of ITE | – | – | –
COc1cc(C(=O)c2c[nH]c3ccccc23)ccn1 [Compound 29] | – | – | 44 ± 2 % of ITE | 65 | 2600 | – | – | – | –
COc1cnc(C(=O)c2c[nH]c3ccccc23)cn1 [Compound 30] | – | – | 41 ± 3 % of ITE | – | – | – | (30)^c fold | 8.1 | –
O=C(c1cccc(N2CCOCC2)n1)c1c[nH]c2ccccc12 [Compound 110, 1H-indol-3-yl-(6-morpholino-2-pyridyl)methanone] | – | – | 46 ± 4 % of ITE | 59 | 62 | – | – | – | ~20
O=C(c1ccccn1)c1c[nH]c2ccccc12 [Compound 124, 1H-indol-3-yl(2-pyridyl)methanone] | – | – | 15 ± 6 % of ITE | 20 | > 10000 | – | – | – | –
COC(=O)c1cccc(C(=O)c2c(C)[nH]c3ccccc23)n1 [Compound 144, methyl 6-(2-methyl-1H-indole-3-carbonyl)pyridine-2-carboxylate] | – | – | 6 ± 2 % of ITE | – | > 10000 | 29 ± 14 % of ITE | (22)^c fold | – | –
CCOC(=O)c1cccc(C(=O)c2c[nH]c3ccccc23)n1 [Compound 147, ethyl 6-(1H-indole-3-carbonyl)pyridine-2-carboxylate] | – | 8 ± 2 % of ITE | 52 ± 28 % of ITE | 40 | 840 | – | – | – | > 250
COC(=O)c1cccc(C(=O)c2c[nH]c3ccccc23)c1 [Compound 202, methyl 3-(1H-indole-3-carbonyl)benzoate] | – | – | – | – | – | 3 ± 1 % of ITE | – | – | –
